According to patent publication US8536212B2, “Protective agent for retinal nerve or optic nerve” (Sanwa Kagaku Kenkyusho Co., Ltd., priority 2007, dated 2013):

Tested on: retinal ganglion cells
Experiment: Mouse ophthalmic artery occlusion model: retinal ischemia 2 hours, reperfusion 22 hours, survival of retinal ganglion cells
Assay type: in vivo, C57BL/6N normal mice (wild type mice)
Conditions: for The number of surviving retinal ganglion cells per 1 μm of retina section, average ± SEM: drug given by forced intragastric administration 15 minutes before reperfusion
Method: In the experiment, mouse models with acute ophthalmic artery infarction, namely, mouse models with ophthalmic artery infarction were used. In Experiment 1, eight to ten-week-old C57BL/6N normal mice (wild type mice) were used and the therapeutic efficacy of fidarestat as the compound with aldose reductase (AR) inhibiting activity was evaluated. Here, those mice were divided into two groups: a control group to which only vehicle was administered and a fidarestat administered group to which fidarestat was administered. In Experiment 2, eight to ten-week-old C57BL/6N normal mice (wild type mice:AR^+/+ mice) and AR gene-deficient mice (AR^−/− mice) were used and the role of AR was examined. Here, those mice were divided into two groups: a wild type mouse group (AR^+/+ mice) and an AR gene-deficient mouse group (AR^−/− mice) and a drug administered group was not used.
Used mice (24 to 28 g of body weight) were subjected to intraluminal suture with nylon monofilament under gas anesthesia. A nylon filament was inserted into the right internal carotid artery at the bifurcation of the middle cerebral artery and the anterior cerebral artery from the common carotid artery. The mice were subjected to retinal ischemia in the right eye. The filament was pulled 2 hours after the ischemia and reperfusion was performed for 22 hours. On the other hand, left eye was evaluated as a normal control eye. In order to confirm ischemia or reperfusion, relative cerebral blood flow (rCBF) in the middle cerebral artery was monitored with a laser Doppler meter during the experiment. Decrease in the rCBF of 75% or more was defined as middle cerebral artery ischemia. The drug was administered 15 minutes before reperfusion starts by forced intragastric administration. At the end of the experiment, the isolated eyes were fixed in 4% paraformaldehyde at 4° C. overnight. The retinal ganglion cell layer was subjected to hematoxylin and eosin stain. Then, the number of surviving retinal ganglion cells was observed and measured. […] All cells of the retina ganglionic layer in each retina section were measured. Further, all measurements were performed by a blind fashion.

SMILES: NC(=O)[C@@H]1C[C@]2(NC(=O)NC2=O)c2cc(F)ccc2O1 [Fidarestat, (2S,4S)-6-fluoro-2′,5′-dioxospiro[chroman-4,4′-imidazolidine]-2-carboxamide]
- The number of surviving retinal ganglion cells per 1 μm of retina section, average ± SEM (side of no retinal ischemia (left eye, normal control eye)): 23 ± 1 per 1 μm of retina section
- The number of surviving retinal ganglion cells per 1 μm of retina section, average ± SEM (side of retinal ischemia (right eye), 2 hours ischemia and 22 hours reperfusion, P<0.001 vs control group): 21 ± 1^†††^ per 1 μm of retina section
- Pathological finding showing retinal ganglion cell death (hematoxylin and eosin stain) (side of retinal ischemia or side of no retinal ischemia, 2 hours ischemia, 22 hours reperfusion (FIG. 1: D3, D4)): not observed
- Number of surviving retinal ganglion cells on the side of retinal ischemia compared with the control group (side of retinal ischemia, P<0.001): significantly increased
